The text below walks through data of patent US20170283458A1, “COLLAGEN-BINDING SYNTHETIC PEPTIDOGLYCANS FOR WOUND HEALING” (Symic Biomedical, Inc., priority 2009, published 2017).

The target in one data set is T1, collagen type I gels (Bos taurus, UniProt P02453+P02465).
T1 construct: purchased Inamed, Freemont, Calif; Nutragen
Put plainly: Viscoelastic characterization of collagen type I gels (rheometer). The data set is classed as biochemical. The following applies: varying ratios of collagen to additive, vs untreated collagen. On the procedure: Gels were made with Nutragen collagen (Inamed, Freemont, Calif.) at a final concentration of 4 mg/mL collagen. Nutragen stock is 6.4 mg/mL in 10 mM HCl. Gel preparation was performed on ice, and fresh samples were made before each test. The collagen solution was adjusted to physiologic pH and salt concentration, by adding appropriate volumes of 10×PBS (phosphate buffered saline), 1×PBS, and 1M NaOH. For most experiments, samples of DS, decorin, DS-SILY, or DS-Dc13 were added at a 10:1 collagen:treatment molar ratio by a final 1×PBS addition (equal volumes across treatments) in which the test samples were dissolved at appropriate concentrations. In this way, samples are constantly kept at pH 7.4 and physiologic salt concentration. Collagen-alone samples received a 1×PBS addition with no sample dissolved. Fibrillogenesis will be induced by incubating neutralized collagen solutions at 37° C. overnight in a humidified chamber to avoid dehydration. Gel solutions with collagen:treatment molar ratios of other than 10:1 were prepared similarly. Collagen gels were prepared as described in EXAMPLE 16 and prior to heating, 200 μL of each treatment were pipetted onto the wettable surface of hydrophobically printed slides (Tekdon). The PTFE printing restricted gels to the 20 mm diameter wettable region. Gels were formed in a humidified incubator at 37° C. overnight prior to mechanical testing. […]

The target in data set [1] is T2, collagen (Bos taurus, UniProt P02453+P02465).
T2 construct: purchased Inamed, Freemont, Calif; Nutragen
T2 sequence (P02453 162-1217 limits assumed): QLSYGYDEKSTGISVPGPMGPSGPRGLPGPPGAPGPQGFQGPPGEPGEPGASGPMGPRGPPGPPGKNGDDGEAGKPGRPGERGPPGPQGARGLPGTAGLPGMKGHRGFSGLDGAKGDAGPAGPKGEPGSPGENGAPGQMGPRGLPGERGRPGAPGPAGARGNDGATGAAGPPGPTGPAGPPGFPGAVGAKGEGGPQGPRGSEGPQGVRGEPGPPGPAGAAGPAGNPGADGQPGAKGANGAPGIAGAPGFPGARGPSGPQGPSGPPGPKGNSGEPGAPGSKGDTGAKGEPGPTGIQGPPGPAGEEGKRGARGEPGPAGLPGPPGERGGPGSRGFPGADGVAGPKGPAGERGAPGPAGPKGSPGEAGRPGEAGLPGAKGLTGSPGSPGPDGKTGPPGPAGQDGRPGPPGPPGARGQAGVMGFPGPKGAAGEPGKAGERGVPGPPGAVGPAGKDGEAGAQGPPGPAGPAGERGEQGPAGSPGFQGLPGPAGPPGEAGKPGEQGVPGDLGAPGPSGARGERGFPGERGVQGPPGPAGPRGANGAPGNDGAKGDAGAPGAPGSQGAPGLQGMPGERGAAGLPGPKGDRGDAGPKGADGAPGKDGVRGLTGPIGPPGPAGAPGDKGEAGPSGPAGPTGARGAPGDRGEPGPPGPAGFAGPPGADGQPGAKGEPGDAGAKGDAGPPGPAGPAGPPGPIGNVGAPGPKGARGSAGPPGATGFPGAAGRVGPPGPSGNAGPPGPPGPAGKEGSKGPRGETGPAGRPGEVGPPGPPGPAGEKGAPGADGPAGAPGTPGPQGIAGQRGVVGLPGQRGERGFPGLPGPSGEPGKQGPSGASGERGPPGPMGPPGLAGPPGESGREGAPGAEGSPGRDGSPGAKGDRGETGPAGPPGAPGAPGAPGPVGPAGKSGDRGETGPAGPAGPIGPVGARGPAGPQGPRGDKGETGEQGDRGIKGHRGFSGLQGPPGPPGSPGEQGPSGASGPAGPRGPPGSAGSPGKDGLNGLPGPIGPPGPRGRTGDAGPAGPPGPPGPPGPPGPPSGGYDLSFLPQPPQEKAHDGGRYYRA
T2 sequence (P02465 80-1117 limits assumed): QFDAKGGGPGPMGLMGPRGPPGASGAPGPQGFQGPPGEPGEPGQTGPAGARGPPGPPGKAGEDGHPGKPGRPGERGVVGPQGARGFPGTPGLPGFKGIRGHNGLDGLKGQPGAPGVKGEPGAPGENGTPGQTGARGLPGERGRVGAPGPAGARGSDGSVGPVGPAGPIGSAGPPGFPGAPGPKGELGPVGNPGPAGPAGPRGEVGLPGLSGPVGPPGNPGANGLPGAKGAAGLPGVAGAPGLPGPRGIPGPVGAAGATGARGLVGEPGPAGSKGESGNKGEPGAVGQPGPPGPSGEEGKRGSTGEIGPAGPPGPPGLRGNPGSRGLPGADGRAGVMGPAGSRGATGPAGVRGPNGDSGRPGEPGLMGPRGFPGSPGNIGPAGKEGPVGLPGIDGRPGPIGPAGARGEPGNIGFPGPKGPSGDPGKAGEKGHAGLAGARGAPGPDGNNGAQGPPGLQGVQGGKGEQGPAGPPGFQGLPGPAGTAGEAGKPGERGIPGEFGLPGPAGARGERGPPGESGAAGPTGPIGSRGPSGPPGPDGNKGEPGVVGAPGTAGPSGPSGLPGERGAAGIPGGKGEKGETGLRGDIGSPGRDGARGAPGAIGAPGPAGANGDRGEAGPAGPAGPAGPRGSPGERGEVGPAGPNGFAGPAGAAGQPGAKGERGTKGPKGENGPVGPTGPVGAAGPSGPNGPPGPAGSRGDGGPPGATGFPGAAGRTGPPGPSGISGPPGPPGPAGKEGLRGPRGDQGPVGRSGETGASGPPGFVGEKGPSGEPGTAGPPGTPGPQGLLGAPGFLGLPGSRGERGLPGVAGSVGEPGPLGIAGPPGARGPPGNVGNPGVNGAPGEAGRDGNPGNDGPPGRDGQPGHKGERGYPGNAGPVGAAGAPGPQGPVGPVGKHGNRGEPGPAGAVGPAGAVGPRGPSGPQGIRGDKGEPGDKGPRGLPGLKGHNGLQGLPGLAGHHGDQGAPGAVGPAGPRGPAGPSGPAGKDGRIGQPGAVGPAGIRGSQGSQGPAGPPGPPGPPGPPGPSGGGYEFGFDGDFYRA
Put plainly: Fibrillogenesis turbidity assay (absorbance at 313 nm). Type of data set: biochemical. On the procedure: (§1) Gels were made with Nutragen collagen (Inamed, Freemont, Calif.) at a final concentration of 4 mg/mL collagen. Nutragen stock is 6.4 mg/mL in 10 mM HCl. Gel preparation was performed on ice, and fresh samples were made before each test. The collagen solution was adjusted to physiologic pH and salt concentration, by adding appropriate volumes of 10×PBS (phosphate buffered saline), 1×PBS, and 1M NaOH. For most experiments, samples of DS, decorin, DS-SILY, or DS-Dc13 were added at a 10:1 collagen:treatment molar ratio by a final 1×PBS addition (equal volumes across treatments) in which the test samples were dissolved at appropriate concentrations. In this way, samples are constantly kept at pH 7.4 and physiologic salt concentration. Collagen-alone samples received a 1×PBS addition with no sample dissolved. Fibrillogenesis will be induced by incubating neutralized collagen solutions at 37° C. overnight in a humidified chamber to avoid dehydration. Gel solutions with collagen:treatment molar ratios of other than 10:1 were prepared similarly.
Collagen fibrillogenesis was monitored by measuring turbidity related absorbance at 313 nm providing information on rate of fibrillogenesis and fibril diameter. Gel solutions were prepared as described in EXAMPLE 16 (4 mg/mL collagen, 10:1 collagen:treatment, unless otherwise indicated) and 50 uL/well were added at 4° C. to a 384-well plate. The plate was kept at 4° C. for 4 hours before initiating fibril formation. A SpectraMax M5 at 37° C. was used to measure absorbance at 313 nm at 30 s intervals for 6 hours.
A fibrillogenesis assay as described for DS-SILY, EXAMPLE 19, performed with the conjugate DS-Dc13.

For another data set, the target named is T3, collagen I (Bos taurus, UniProt P02453+P02465).
T3 construct: purchased Inamed, Freemont, Calif; Nutragen
T3 sequence (P02453 162-1217 limits assumed): as the sequence (P02453 162-1217 limits assumed) above
T3 sequence (P02465 80-1117 limits assumed): as the sequence (P02465 80-1117 limits assumed) above
Put plainly: Cryo-SEM measurements on collagen I, fibril diameter. The data set is classed as biochemical. The following applies: 4 mg/mL collagen, 10:1 collagen:treatment, cryo-SEM 20,000×. On the procedure:
as §1
Gels for cryo-SEM were formed, as in EXAMPLE 16, directly on the SEM stage and incubated at 37° C. overnight. The stages were then secured in a cryo-holder and plunged into liquid nitrogen slush. Samples were then transferred to a Gatan Alto 2500 pre-chamber cooled to −170° C. under vacuum. A free-break surface was created with a cooled scalpel, and each sample evaporated under sublimation conditions for 20 min. The sample was coated by platinum sputter coating for 120 s. Samples were transferred to the cryo-stage at −130° C. and regions with similar orientation were imaged for comparison across treatments. Analysis of the images was performed to determine the fibril diameter distribution, presented in histograms adjacent the corresponding image in FIG. 14, and average fibril diameter, FIG. 17 an 18;. Fibril diameter was calculated using ImageJ software (NIH) measuring individual fibrils by hand (drawing a line across fibrils and measuring its length after properly setting the scale). At least 45 independent fibril measurement were recorded for average fibril diameter calculations.

Data set [2] concerns Human coronary artery smooth muscle cells (HCA SMC). Put plainly: Gel compaction by smooth muscle cells in collagen gels. Type of data set: cell-based. How it is done:
Human coronary artery smooth muscle cells (HCA SMC) (Cascade Biologics) were cultured in growth medium (Medium 231 supplemented with smooth muscle growth factor). Cells from passage 3 were used for all experiments. Differentiation medium (Medium 231 supplemented with 1% FBS and 1× pen/strep) was used for all experiments unless otherwise noted.
Collagen gels were prepared with each additive as described with the exception that the 1×PBS example addition was omitted to accommodate the addition of cells in media. After incubating on ice for 30 min, HCA SMCs in differentiation medium were added to the gel solutions to a final concentration of 1×10^6 cells/mL. Gels were formed in quadruplicate in 48-well non-tissue culture treated plates (Costar) for 6 hrs before adding 500 μL/well differentiation medium. Gels were freed from the well edges after 24 hrs. Medium was changed every 2-3 days and images for compaction were taken at the same time points using a Gel Doc System (Bio-Rad). The cross-sectional area of circular gels correlating to degree of compaction was determined using ImageJ software (NIH). Gels containing no cells were used as a negative control and cells in collagen gels absent additive were used as a positive control. […] By day 10 all gels had compacted to approximately 10% of the original gel area, and differences between additives were small.

The next data set deals with HCA SMCs. Put plainly: Measurement of elastin (Fastin assay) in cell-seeded collagen gels. The data set is classed as cell-based, human. The note with it: gels cultured for 10 days. On the procedure:
Collagen gels seeded with HCA SMCs were prepared as described in EXAMPLE 30. Differentiation medium was changed every three days and gels were cultured for 10 days. Collagen gels containing no cells were used as a control. Gels were rinsed in 1×PBS overnight to remove serum protein, and gels were tested for elastin content using the Fastin elastin assay per manufacturers protocol (Biocolor, County […].). Briefly, gels were solubilized in 0.25 M oxalic acid by incubating at 100° C. for 1 hr. Elastin was precipitated and samples were then centrifuged at 11,000×g for 10 min. The solubilized collagen supernatant was removed and the elastin pellet was stained by Fastin Dye Reagent for 90 min at room temperature. Samples were centrifuged at 11,000×g for 10 min and unbound dye in the supernatant was removed. Dye from the elastin pellets was released by the Fastin Dye Dissociation Reagent, and 100 μL samples were transferred to a 96-well plate (Costar). Absorbance was measured at 513 nm, and elastin content was calculated from an α-elastin standard curve.

In another data set the target is T4, collagen gels (Bos taurus, UniProt P02453+P02465).
T4 construct: purchased Inamed, Freemont, Calif; Nutragen
T4 sequence (P02453 162-1217 limits assumed): as the sequence (P02453 162-1217 limits assumed) above
T4 sequence (P02465 80-1117 limits assumed): as the sequence (P02465 80-1117 limits assumed) above
Put plainly: Cryo-SEM measurement of fibril density. Type of data set: biochemical. The note with it: 10:1 molar ratio, cryo-SEM 10,000×. On the procedure: Collagen gels were formed in the presence of each additive at a 10:1 molar ratio, as described in EXAMPLE 16, directly on the SEM stage, processed, and imaged as described. Images at 10,000× were analyzed for fibril density calculations. Images were converted to 8-bit black and white, and threshold values for each image were determined using ImageJ software (NIH). The threshold was defined as the value where all visible fibrils are white, and all void space is black. The ratio of white to black area was calculated using MatLab software. All measurements were taken in triplicate and thresholds were determined by an observer blinded to the treatment.

The subject of a further data set is Human dermal fibroblasts. Put plainly: TGF-β1 production by human dermal fibroblasts (ELISA). The data set is classed as cell-based. The note with it: 1.4 μM treatment, 48 hours. On the procedure:
Human dermal fibroblasts (Cascade Biologics) were seeded onto 96-well tissue culture polystyrene plates at a seeding density of 1.83×10^3 cells/well. Cells adhered overnight and cell medium was aspirated. 100 μL/well of cell medium containing a final concentration of 1.4 μM treatment delivered from a concentrated solution of treatment in 1×PBS was added to the cells. After 48 hours, cell medium was removed and frozen at −80 C until further testing. TGF-β1 was measured by ELISA using a kit and protocol from R&D Systems.

Data set [3] has as its system collagen. Put plainly: SILY binding to collagen (Biacore surface plasmon resonance). On the procedure:
Biacore studies were performed on a Biacore 2000 using a CM-3 chip (Biacore, Inc., Piscataway, N.J.). The CM-3 chip is coated with covalently attached carboxymethylated dextran, which allows for attachment of the substrate collagen via free amine groups. Flow cells (FCs) 1 and 2 were used, with FC-1 as the reference cell and FC-2 as the collagen immobilized cell. Each FC was activated with EDC-NHS, and 1500RU of collagen was immobilized on FC-2 by flowing 1mg/mL collagen in sodium acetate, pH 4, buffer at 5 μL/min for 10 min. Unreacted NHS-ester sites were capped with ethanolamine; the control FC-1 was activated and capped with ethanolamin.
To determine peptide binding affinity, SILY was dissolved in 1× HBS-EP buffer (Biacore) at varying concentrations from 100 uM to 1.5 μm in 2-fold dilutions. […] The first 10 injections were buffer injections, which help to prime the system, followed by randomized sample injections, run in triplicate. Analysis was performed using BIAevaluation software (Biacore).

Data set [4] deals with Human aortic smooth muscle cells. Put plainly: Collagen remodeling: hydroxyproline content in medium of cell-seeded collagen gels. Type of data set: cell-based. The note with it: vs collagen alone; cultures up to 30 days. On the procedure: Following a method by Grassl, et al. (Grassl, et al., Journal of Biomedical Materials Research 2002, 60, (4), 607-612), which is herein incorporated in its entirety, collagen gels with or without synthetic PG mimics were formed as described in EXAMPLE 16. Human aortic smooth muscle cells (Cascade Biologics, Portland, Oreg.) were seeded within collagen gels by adding 4×10^6 cells/mL to the neutralized collagen solution prior to incubation. The cell-collagen solutions were pipetted into an 8-well Lab-Tek chamber slide and incubated in a humidified 37° C. and 5% CO2 incubator. After gelation, the cell-collagen gels will be covered with 1 mL Medium 231 as prescribed by Cascade. Every 3-4 days, the medium was removed from the samples and the hydroxyproline content measured by a standard hydroxyproline assay (Reddy, 1996).
To measure degraded collagen in the supernatant medium, the sample was lyophilized, the sample hydrolyzed in 2M NaOH at 120° C. for 20 min. After cooling, free hydroxyproline was oxidized by adding chloramine-T (Sigma) and reacting for 25 min at room temperature. Ehrlich's aldehyde reagent (Sigma) was added and allowed to react for 20 min at 65° C. and followed by reading the absorbance at 550 nm on an M-5 spectrophotometer (Molecular Devices). […] Cultures were incubated for up to 30 days and three samples of each treatment measured. […]

Ends that are not written are not given here.

T1 sequence (P02453 162-1217 limits assumed): as the sequence (P02453 162-1217 limits assumed) above
T1 sequence (P02465 80-1117 limits assumed): as the sequence (P02465 80-1117 limits assumed) above

As for “DS-Dc13: dermatan sulfate conjugated via PDPH to Dc13 peptide, molar ratio about 1 (SYIRIADTNITGC; also: dermatan sulfate conjugate via PDPH, molar ratio about 1, site not given here)”, the “stiffness of collagen gel (storage modulus G')” value in the data set with collagen type I gels was “increase the stiffness of the resulting collagen gel over untreated collagen”. Moreover, the rate of fibrillogenesis result with collagen [1] (4 mg/mL collagen, 10:1 collagen:treatment unless otherwise indicated) is on record as “decrease the rate of fibrillogenesis”. Besides, in the data set with collagen [1] (1:1 or 10:1 collagen to treatment, FIG. 12), the “fibrillogenesis and overall absorbance” value is “delays fibrillogenesis and decreases overall absorbance in a dose-dependent manner”. In the data set with collagen I, the average fibril diameter entry is “significant decrease in average fibril diameter”. Moreover, in data set [2] (Days 3 and 5), the “gel compaction at early time points” value is listed as “significantly compacted more than gels made of collagen alone or collagen with dermatan sulfate”. In addition, the gel compaction entry in data set [2] (day 10) is “slightly, but significantly, less compact than gels treated with decorin or collagen”. The elastin production entry with HCA SMCs is reported as “significantly decreased elastin production over untreated collagen”. Besides, in the data set with collagen gels, the “fibril density (ratio of fibril containing area to void space)” value was “not significant compared to collagen”.
Regarding dermatan sulfate [reference compound], at collagen type I gels, the “stiffness of collagen gel (storage modulus G')” value was “increase the stiffness of the resulting collagen gel over untreated collagen”. For the same substance, in the data set on Human dermal fibroblasts, the “TGF-β1 in cell medium” value is “significantly decreased TGF-β1”. The elastin production entry in the data set with HCA SMCs is listed as “significantly decreased elastin production over untreated collagen”.
Turning to RRANAALKAGELYKSILYGC, the “reversibility of binding to collagen” value with collagen [3] (association/disassociation curves, FIG. 2) was “binds reversibly with collagen”. Further, the dissociation constant Kd at collagen [3] (calculated from the on-off binding kinetics, collagen immobilized on CM-3 chip) is 1200 nM. For the same substance, at collagen I, the average fibril diameter result is “significant decrease in average fibril diameter”. For the same substance, the “collagen degradation measured by hydroxyproline content in cell medium” value in data set [4] was “greater collagen degradation compared to collagen alone”. In the data set on Human dermal fibroblasts, the “TGF-β1 in cell medium” value is given as “significantly decreased TGF-β1”. For the same substance, the “fibril density (ratio of fibril containing area to void space)” value on collagen gels was “significantly greater fibril density”.
